pIC50: −log10 of the molar value.
Tested on: MOLM-13
Assay: Antiproliferative activity against human MOLM-13 cells incubated for 72 hrs by CellTiter-Glo based multilabel reader analysis
Type: functional, cell-based
Details: MOLM-13, 72 h

Row | SMILES | pIC50
1 | CCn1c(CO)nn(-c2cc(O[C@@H](C)C(F)(F)F)c3c(Nc4c(C)ccnc4Cl)nn(C)c3c2F)c1=O | 8.24
2 | CCn1c(CO)nn(-c2cc(OC(C)C(F)(F)F)c3c(Nc4c(F)cccc4Cl)nn(C)c3c2F)c1=O (configuration not stated) | 8.92
3 | CCn1c(CO)nn(-c2cc(OC(C)C(F)(F)F)c3c(Nc4c(F)cccc4Cl)nn(C)c3c2)c1=O (configuration not stated) | 8.52
4 | Cc1ccnc(Cl)c1Nc1nn(C)c2c(F)c(-c3cn(C)c(C(C)(C)O)n3)cc(O[C@@H](C)C(F)(F)F)c12 | 10.00
5 | CCn1c(CO)nn(-c2cc(O[C@@H](C)C(F)(F)F)c3c(Nc4c(F)cccc4Cl)nn(C)c3c2F)c1=O | 9.15
6 | CCn1c(CO)nn(-c2cc(O[C@@H](C)C(F)(F)F)c3c(Nc4c(F)cccc4Cl)noc3c2F)c1=O | 9.15

Molecular target: Dihydroorotate dehydrogenase (quinone), mitochondrial (Homo sapiens, UniProt Q02127)
Sequence (Q02127 whole entry): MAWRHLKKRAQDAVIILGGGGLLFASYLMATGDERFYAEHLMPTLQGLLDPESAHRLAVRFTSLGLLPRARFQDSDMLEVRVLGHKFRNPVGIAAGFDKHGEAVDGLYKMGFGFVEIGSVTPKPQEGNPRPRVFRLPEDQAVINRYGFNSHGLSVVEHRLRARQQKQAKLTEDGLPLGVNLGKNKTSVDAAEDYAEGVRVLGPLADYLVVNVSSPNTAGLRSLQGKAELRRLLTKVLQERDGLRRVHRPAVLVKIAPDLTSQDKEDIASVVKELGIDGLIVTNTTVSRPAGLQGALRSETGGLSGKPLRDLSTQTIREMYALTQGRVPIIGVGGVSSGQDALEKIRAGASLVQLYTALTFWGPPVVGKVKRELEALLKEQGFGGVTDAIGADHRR
Assay: Inhibition of human DHODH using dihydroorotate as substrate and Q6 as coenzyme by DCIP dye based spectrophotometry analysis
Details: not given

Row | SMILES | pIC50
7 | CCn1c(CO)nn(-c2cc(O[C@@H](C)C(F)(F)F)c3c(Nc4c(C)ccnc4Cl)nn(C)c3c2F)c1=O | 8.70
8 | CCn1c(CO)nn(-c2cc(OC(C)C(F)(F)F)c3c(Nc4c(F)cccc4Cl)nn(C)c3c2F)c1=O (configuration not stated) | 8.52
9 | CCn1c(CO)nn(-c2cc(OC(C)C(F)(F)F)c3c(Nc4c(F)cccc4Cl)nn(C)c3c2)c1=O (configuration not stated) | 8.10
10 | Cc1ccnc(Cl)c1Nc1nn(C)c2c(F)c(-c3cn(C)c(C(C)(C)O)n3)cc(O[C@@H](C)C(F)(F)F)c12 | 9.00
11 | CCn1c(CO)nn(-c2cc(O[C@@H](C)C(F)(F)F)c3c(Nc4c(F)cccc4Cl)nn(C)c3c2F)c1=O | 8.70
12 | CCn1c(CO)nn(-c2cc(O[C@@H](C)C(F)(F)F)c3c(Nc4c(F)cccc4Cl)noc3c2F)c1=O | 8.70

Reference: ChEMBL document CHEMBL5131533, “Indazole and Benzoisoxazole Compounds as Dihydroorotate Dehydrogenase Inhibitors for Treating Acute Myelogenous Leukemia” (ACS Med Chem Lett, 2022)
